Results on three molecules are retold here after patent US20080214563A1, “Benzimidazole Thiophene Compounds As Plk Modulators” (priority 2005, published 2008).

Holding throughout (format): cell-based
One assay concerns RKO. Put plainly: Methylene Blue Cell Growth Inhibition Assay, RKO. Particulars: Homo sapiens, 72 h, read-out: MEB RKO IC50. The procedure: (§1) Normal human foreskin fibroblasts (HFF), human colon (HCT116, RKO), lung (H460, A549) and breast (MCF7) tumor cell lines were cultured in high glucose DMEM (Life Technologies) containing 10% fetal bovine serum (FBS) at 37° C. in a humidified 5% CO2, 95% air incubator. Cells were harvested using trypsin/EDTA, counted using a haemocytometer, and plated in 100 μL of culture media per well, at the following densities, in a 96-well tissue culture plate (Falcon 3075): HFF 5,000 cells/well, HCT116 3,000 cells/well, RKO 2,500 cells/well, H460 2,500 cells/well, A549 5,000 cells/well, MCF7 4,000 cells/well. The next day, compounds were diluted in low glucose DMEM containing 100 μg/mL gentamicin, at twice the final required concentration, from 10 mM stock solutions in DMSO. 100 μL/well of these dilutions were added to the 100 μL of media currently in the assay plates. Medium containing 0.6% DMSO was added to control wells. The final concentration of DMSO in all wells was 0.3%. Cells were incubated at 37° C., 5% CO2 for 72 h. Medium was removed by aspiration. Cell biomass was estimated by staining cells with 80 μL per well methylene blue (Sigma M9140, 0.5% in 50:50 ethanol:water), and incubation at room temperature for 30-60 min. Stain was removed by aspiration and the plates rinsed by immersion in water, then air-dried. To release stain from the cells, 100 μL of solubilization solution was added (1% N-lauroyl sarcosine, Sodium salt, Sigma L5125, in PBS), and plates were shaken gently for about 30 min. Optical density at 620 nm was measured on a microplate reader. Percent inhibition of cell growth was calculated relative to vehicle treated control wells. Concentration of compound that inhibits 50% of cell growth (IC50) was interpolated using nonlinear regression (Levenberg-Marquardt) and the equation, y=Vmax*(1−(x/(K+x)))+Y2, where “K” was equal to the IC50.

A further assay deals with HCT116. Put plainly: Methylene Blue Cell Growth Inhibition Assay, HCT116. Particulars: Homo sapiens, HCT-116, 72 h, read-out: MEB HCT116 IC50. The procedure:
as §1

Another assay deals with HT29. The experiment in a line: Cell-Titer Glo Cell Growth Inhibition Assay, HT29. Particulars: Homo sapiens, HT-29, CellTiter-Glo, 72 h, read-out: CTG HT29 IC50. How it is done:
A549-L (human lung), BT474 (human breast), Colo 205 (human colon), H1299 (human lung), Hela (human cervix), HCT-116 (human colon), HN5 (human head and neck), HT29 (human colon), LNCap (human prostate), MCF7 (human breast), MDA-MB468 (human breast), MX-1 (human breast), RPMI 8226 (human peripheral blood), SKOV3 (human ovary) and P388 (murine leukemia) cell lines were cultured in RPMI1640 containing 10% fetal bovine serum at 37° C. in a 5% CO2 incubator. Cell lines were split into T75 flasks (Falcon #353136) two to three days prior to assay set up at density which yields approximately 70-80% confluency at time of harvest for assay. Cells were harvested using 0.25% trypsin with EDTA (Glibco/Invitrogen #25200-056), Cell counts were performed on cell suspensions using Trypan Blue exclusion staining, cells were then plated in 105 uL of culture media per well at the following densities in 96 well Costar #3916 black flat bottom plates: All human cell lines were plated at 500 cells/well. P388 were plated at 250 cells/well. All plates were placed at 5% CO2 37° C. overnight and then test compounds were added the following day. One plate of each cell type is treated with CellTiter-Glo (Promega #G7573) for a day 0 proliferation measurement and read as described below. The test compounds are prepared in clear U bottom polypropylene 96 well plates (Falcon #35-1190 with consecutive two fold dilutions. 9 uL of these dilutions was added into each well of the cell plates. The final concentration of DMSO in all wells is 0.15%. Cells were incubated at 37° C., 5% CO2 for 72 h. Following 72 h of incubation with compounds each plate was developed and read. CellTiter-Glo reagent was added to assay plates using a volume equivalent to the cell culture volume in the wells. Plates were shaken for approximately two minutes and incubated at room temperature for approximately 15 min and the chemiluminescent signal is read on the Victor V or Envison 2100 reader. […] Concentration of compound that inhibited 50% of cell growth (IC50) was analysis by 4 or 6 parameter fit of data using XLfit, value of no cell addition was subtracted from all samples for background.
Background: Cellular ATP, detected with luciferase, serves as a proxy for viable cell number.

The next assay has as its system H460. The experiment in a line: Methylene Blue Cell Growth Inhibition Assay, H460. To be noted: Homo sapiens, NCI-H460, 72 h, read-out: MEB H460 IC50. How it is done: as §1

On to `C[C@@H](Oc1cc(-n2cnc3cc(-c4cnn(C)c4)ccc32)sc1C(N)=O)c1ccccc1Cl` [Example 9, 3-{[(1R)-1-(2-Chlorophenyl)ethyl]oxy}-5-[5-(1-methyl-1H-pyrazol-4-yl)-1H-benzimidazol-1-yl]-2-thiophenecarboxamide], for which the IC50 in the assay with RKO, in the assay with HCT116, in the assay with HT29 and in the assay with H460 was under 100 nM in each case.
For the molecule `C[C@@H](Oc1cc(-n2cnc3cc(-c4ccc(N5CCNCC5)nc4)ccc32)sc1C(N)=O)c1ccccc1Cl` [Example 7, 3-{[(1R)-1-(2-Chlorophenyl)ethyl]oxy}-5-{5-[6-(1-piperazinyl)-3-pyridinyl]-1H-benzimidazol-1-yl}-2-thiophenecarboxamide], the 50% inhibitory concentration (IC50) in the assay with RKO was under 100 nM; in the assay with HCT116, 100 to 1000 nM; with HT29, under 100 nM.
Take `C[C@@H](Oc1cc(-n2cnc3cc(-c4ccc(N5CCNCC5)nc4)ccc32)sc1C(N)=O)c1ccccc1C(F)(F)F` [Example 1, 5-{5-[6-(1-piperazinyl)-3-pyridinyl]-1H-benzimidazol-1-yl}-3-({(1R)-1-[2-(trifluoromethyl)phenyl]ethyl}oxy)-2-thiophenecarboxamide]: the IC50 is under 100 nM with RKO, 100 to 1000 nM in the assay on HCT116, under 100 nM in the assay on HT29 and 100 to 1000 nM with H460.

What is called IC50 is the concentration that gives 50% inhibition.
